Our source for the IC50 values is US7074779B2, “Estrieno[3,2-b]/[3,4-c]pyrrole derivatives useful as modulators of the estrogen receptors” (Ortho-McNeil Pharmaceutical, Inc., priority 2003, dated 2006).

This assay addresses T1, human estrogen receptor β (Homo sapiens, UniProt Q92731).
T1 construct: purchased Panvera
The experiment in a line: Estrogen Receptor β Fluorescence Polarization Assay. The conditions noted are these: displacement of Fluormone ES2; read-out: ERβ Binding IC50. The source says: This assay monitors binding of a fluorescent analog of estrogen (Fluormone ES2, Panvera) to the estrogen receptor. Plates were read in a fluorometer that can be set to polarization mode. A decrease in […] relative to vehicle control is an indication of binding of a compound to the receptor. It is crucial to avoid introduction of air bubbles into the reaction in each well of the 96 well plate throughout this procedure. (Bubbles on the surface of the reaction disrupt light flow, affecting the polarization reading.) However, it is also crucial to effectively mix the reaction components upon addition to the well. On ice, a 2× standard mixture of Assay Buffer (Panvera), 10 nM DTT and 40 nM ES2 was prepared. On ice, a 2× reaction mixture of Assay Buffer (Panvera), and 20 nM human estrogen receptor β (hER-β, Panvera) and 40 nM ES2 was also prepared. Dilutions-of test compound were prepared in 30% (v/v) dimethyl sulfoxide/50 mM HEPES, pH 7.5. At this point, the dilutions were 40× the final required concentration. The standard mixture at 50 μL was then added to each well. The reaction mixture at 48 μL was added to all wells. The compound dilution at 2.5 μL was added to the appropriate wells. The reaction mixtures were mixed using a manual pipette, a roll of aluminum foil adhesive cover was placed on the plate and the plate incubated at room temperature for 1 hour. Each well on the plate was then read in an LjL Analyst with an excitation wavelength of […] and an emission wavelength of 538.
Background: Fluorescence polarisation rises when a labelled molecule tumbles more slowly, as on binding a larger partner.

Structures are written as SMILES. pIC50: −log10 of the molar value. Bounds are passed on as bounds.

T1 sequence (Q92731 whole entry): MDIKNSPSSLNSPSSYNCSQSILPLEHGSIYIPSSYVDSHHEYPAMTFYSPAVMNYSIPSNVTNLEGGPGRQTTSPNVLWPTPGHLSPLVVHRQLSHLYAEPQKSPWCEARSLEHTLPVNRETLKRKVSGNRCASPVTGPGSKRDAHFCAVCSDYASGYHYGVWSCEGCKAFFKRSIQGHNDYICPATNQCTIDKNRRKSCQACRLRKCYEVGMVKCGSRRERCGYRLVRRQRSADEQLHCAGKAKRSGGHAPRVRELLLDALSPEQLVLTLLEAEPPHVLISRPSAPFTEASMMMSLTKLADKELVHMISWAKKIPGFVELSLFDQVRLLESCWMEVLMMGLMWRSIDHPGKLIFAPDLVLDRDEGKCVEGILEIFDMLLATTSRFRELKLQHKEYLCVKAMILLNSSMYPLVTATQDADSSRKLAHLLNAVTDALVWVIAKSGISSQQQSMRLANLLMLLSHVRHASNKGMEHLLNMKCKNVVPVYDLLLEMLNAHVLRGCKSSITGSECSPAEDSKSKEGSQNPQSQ

Turning to `C[C@]12CCC3c4cc5cc[nH]c5cc4CCC3C1CCC2=O` (some centres unmarked) [Compound 3], the negative logarithm of the IC50 (pIC50) (usually −log10 of the IC50, conventionally taken in molar units) is less than 5.00.

On to `C[C@]12CCC3c4cc5cc[nH]c5cc4CCC3C1CC[C@@H]2OC(=O)CCC(=O)O` (some centres unmarked) [Compound 13], for which the pIC50 is 6.21.

`C[C@]12CCC3c4cc5cc[nH]c5cc4CCC3C1CC[C@@H]2O` (some centres unmarked) [Compound 8]: the pIC50 is 6.82.

For `C[C@]12CCC3c4ccc5[nH]ccc5c4CCC3C1CCC2=O` (some centres unmarked) [Compound 4], the pIC50 was 6.21.

Regarding `C[C@]12CCC3c4ccc5[nH]ccc5c4CCC3C1CC[C@@H]2O` (some centres unmarked) [Compound 6], the negative-log IC50 (pIC50) was 7.04.
